Where a SMILES comes first, the peptide text is derived from it. [ ]: non-standard residue; d: D form. Dopa = N[C@@H](Cc1ccc(O)c(O)c1)C(=O)O; Cha = N[C@@H](CC1CCCCC1)C(=O)O
Key:
[1] = tested on: Acropora hemprichii fragments; assay: Adhesion of bigger coral fragments with IIZKDo glue to tile and 3D printed coral; type: in vivo
From the text: The donor corals Acropora spp. shown in FIG. 36 were collected from the Red Sea.
In one embodiment, IIZKDo was used for the adhesion of bigger and heavier coral fragments to the 3D printed coral, which would be the situation in coral reef restoration. In gluing larger coral fragments, two different type of Acropora hemprichii were glued: some big fragments with an irregular base, and some smaller pieces with smooth base.
In one embodiment, the big fragments with irregular base and the smaller pieces with smooth base were attached to a tile. The cut small pieces of coral were attached to a special sheet for macrofragmentation so that these fragments further grew on the surface of the spreadsheet, in order to obtain fragments with a base smooth enough to stick them on the tile. After 15 days, the big fragments were still fully attached to the tile, whereas the small, flat fragments were all detached.
After verifying the best performing glue among the three DoIIZK, IIZDoK, IIZKDo, IIZKDo was selected to glue some coral fragments onto 3D printed PLA corals used for coral reef restoration project. Using a diagonal plier, the tip of each branch-like part (ca. 1.5-2.5 cm in length) of a donor Acropora hemprichii coral was gently cut to minimize damage to the coral itself. FIG. 36 illustrates the parts being cut from the donor coral. […] The initial donor coral was moved from a large shallow aquarium (230×148×140 cm) supplied with running seawater to a relatively shallow aquarium also outfitted with running seawater. While preparing the glue, the cut fragments were kept in a small shallow aquarium (72×54×29 cm) filled with sea water to not harm them until use. In the meantime, the glue was prepared by mixing IIZKDo 40 mg/mL in water and the mixture was poured on a glass slide and allowed to rest for about 5 minutes to equilibrate, as shown in FIG. 42. The cut coral fragment was removed from the aquarium, and cleaned, while moisture was allowed to absorb from the cut section with sterilized filter paper. The ceramic tile was cleaned twice with water, and then sea water to mimic the adhesion of the glue to a wet, salty surface.
A few drops of IIZKDo was applied at the surface of the cut section of the coral fragment, and the fragment was immediately glued at the surface of the tile, as shown in FIG. 43. As a control, some smaller fragments with smooth surface Acropora hemprichii, were glued using the same peptide-based glue.
The tile with attached coral fragments was placed in the original shallow aquarium (230×148×140 cm) to keep the coral in its natural environment as shown in FIG. 44 and checked after 3 days. Only the big fragments were still sticking on the tile. Therefore, only big fragments were then glued to the 3D printed poly-lactic acid (PLA) printed coral structure primed with MakerBot, which is a 3D printer based on fused deposition modeling method and grew in harsher conditions, such as in the presence of algae etc.

[2] = Rheology of peptide hydrogels (storage and loss modulus); type: physicochemical; details: 15 mg/mL in 1×PBS
Procedure: In one embodiment, the structural characteristics of these peptides also influence the rheological properties of the peptides, such as stiffness. The stiffness of the peptide hydrogels was assessed by rheology measurements. The five peptides, DoIIZK, IIZDoK, IIZKDo, IIZ(KDo)2 and IIZ(KDo)3 were dispersed in phosphate-buffered saline (1×PBS) to final concentrations of […]. Only DoIIZK and IIZKDo formed transparent hydrogels after preparation of gels onto rheology glass rings; the rest of the peptides formed grey/opaque hydrogels. This difference implies that the fibrils of peptides DoIIZK and IIZKDo had sufficient time to disperse and spread in solution before entrapping water to gel, while peptides IIZDoK, IIZ(KDo)2 and IIZ(KDo)3 gelled quickly upon fibril formation. Therefore, the rheological properties of the peptides were measured at the concentration of 15 mg/ml. […] The storage modulus and loss modulus reflect the stress response of the hydrogel in oscillatory shear. […]
Peptide hydrogels were prepared by weighing the appropriate peptide amount of the lyophilized peptide powder in 2 mL glass-vials. […] Rheological analysis mechanical properties of the formed gels were assessed by using the TA Ares-G2 Rheometer with an 8 mm titanium parallel-plate geometry. […] Time-sweep, frequency-sweep, and amplitude-sweep, were measured for each sample to explore the mechanical stiffness of the gels. […]

[3] = Big fragments with irregular base, n = 5, tile
[4] = Flat fragments with smooth base, n = 3, tile

Row | Structure (SMILES) | Survival after 15 days in the aquarium [1, 3] | Survival after attachment [1, 3] | Survival after 15 days in the aquarium [1, 4] | Survival after attachment [1, 4] | time coral fragments kept glued to a 3D printed substrate ([1]; seawater) | Storage and Loss moduli, times lower than DoIIZK and IIZKDo [2] | Storage modulus ([2]; 25° C.)
1 | CC[C@H](C)[C@H](NC(C)=O)C(=O)N[C@H](C(=O)N[C@@H](CC1CCCCC1)C(=O)N[C@@H](CCCCN)C(=O)N[C@@H](Cc1ccc(O)c(O)c1)C(N)=O)[C@@H](C)CC [IIZKDo, Ac-Ile-Ile-Cha-Lys-Dopa-NH2] (Ac-II[Cha]K[Dopa]-NH2) | 5 | 5 | 0 | 3 | several months |  | 
2 | CC[C@H](C)[C@H](NC(C)=O)C(=O)N[C@H](C(=O)N[C@@H](CC1CCCCC1)C(=O)N[C@@H](Cc1ccc(O)c(O)c1)C(=O)N[C@@H](CCCCN)C(N)=O)[C@@H](C)CC [IIZDoK, Ac-Ile-Ile-Cha-Dopa-Lys-NH2] (Ac-II[Cha][Dopa]K-NH2) |  |  |  |  |  | roughly 10 times | 2-5 kPa

From patent publication US12116421B2, “Peptide-based Dopa containing adhesive gels” (KING ABDULLAH UNIVERSITY OF SCIENCE AND TECHNOLOGY, priority 2020, dated 2024)
